{
  "source": "ChEMBL document CHEMBL1128912",
  "about": "“DNA cleavage of novel propargylic sulfones. Enhancement of potency via intercalating interaction” (Bioorg Med Chem Lett, 1996)",
  "test_system": "KB",
  "test": "Cytotoxicity was evaluated by using KB/P cancer cells",
  "assay_type": "functional, cell-based",
  "details": "Homo sapiens",
  "note": "pIC50: −log10 of the molar value.",
  "data": [
    {"smiles": "O=S(=O)(CC#CCCCCC#CCO)c1ccccc1", "values": [
      {"measurement": "pIC50", "result": 5.28}
    ]}
  ]
}
